# Reference: BindingDB's records for doi:10.1016/S0960-894X(97)10107-X (1997)
# Biological target: 1,3-beta-glucan synthase (Candida albicans)
# Assay: In vitro inhibition of 1,3-beta-glucan synthase in Candida albicans membrane assay.
row,IC50,Compound
1,0.08 µM,C=Cc1cc(C[C@H](O)[C@@H]2NC(=O)[C@@H]3C[C@@H](O)CN3C(=O)[C@H]([C@@H](C)O)NC(=O)[C@H](NC(=O)CCCCCCCCC(C)CC(C)CC)C[C@@H](O)CNC(=O)[C@@H]3[C@@H](O)CCN3C(=O)[C@H]([C@@H](O)CC(N)=O)NC2=O)ccc1O (some centres undefined) [Pneumocandin analogue]
2,0.15 µM,CCC(C)CC(C)CCCCCCCCC(=O)N[C@@H]1C[C@@H](O)CNC(=O)[C@@H]2[C@@H](O)CCN2C(=O)[C@H]([C@@H](O)CC(N)=O)NC(=O)[C@H]([C@@H](O)Cc2ccc(O)c(/C=C/C(=O)OC)c2)NC(=O)[C@@H]2C[C@@H](O)CN2C(=O)[C@H]([C@@H](C)O)NC1=O (some centres undefined) [Pneumocandin analogue]
3,3 µM,CCC(C)CC(C)CCCCCCCCC(=O)N[C@@H]1C[C@@H](O)CNC(=O)[C@@H]2[C@@H](O)CCN2C(=O)[C@H]([C@@H](O)CC(N)=O)NC(=O)[C@H]([C@@H](O)Cc2ccc(O)c(C(=O)OC)c2)NC(=O)[C@@H]2C[C@@H](O)CN2C(=O)[C@H]([C@@H](C)O)NC1=O (some centres undefined) [Pneumocandin analogue]
4,> 5 µM,CCC(C)CC(C)CCCCCCCCC(=O)N[C@@H]1C[C@@H](O)CNC(=O)[C@@H]2[C@@H](O)CCN2C(=O)[C@H]([C@@H](O)CC(N)=O)NC(=O)[C@H]([C@@H](O)Cc2ccc(O)c(C=O)c2)NC(=O)[C@@H]2C[C@@H](O)CN2C(=O)[C@H]([C@@H](C)O)NC1=O (some centres undefined) [Pneumocandin analogue]
5,0.2 µM,CCC(C)CC(C)CCCCCCCCC(=O)N[C@@H]1C[C@@H](O)CNC(=O)[C@@H]2[C@@H](O)CCN2C(=O)[C@H]([C@@H](O)CC(N)=O)NC(=O)[C@H]([C@@H](O)Cc2ccc(O)c(CCN)c2)NC(=O)[C@@H]2C[C@@H](O)CN2C(=O)[C@H]([C@@H](C)O)NC1=O (some centres undefined) [Pneumocandin analogue]
6,0.06 µM,CCC(C)CC(C)CCCCCCCCC(=O)N[C@@H]1C[C@@H](O)CNC(=O)[C@@H]2[C@@H](O)CCN2C(=O)[C@H]([C@@H](O)CC(N)=O)NC(=O)[C@H]([C@@H](O)Cc2ccc(O)c(CCO)c2)NC(=O)[C@@H]2C[C@@H](O)CN2C(=O)[C@H]([C@@H](C)O)NC1=O (some centres undefined) [Pneumocandin analogue]
7,0.1 µM,CCC(C)CC(C)CCCCCCCCC(=O)N[C@@H]1C[C@@H](O)CNC(=O)[C@@H]2[C@@H](O)CCN2C(=O)[C@H]([C@@H](O)CC(N)=O)NC(=O)[C@H]([C@@H](O)Cc2ccc(O)c(I)c2)NC(=O)[C@@H]2C[C@@H](O)CN2C(=O)[C@H]([C@@H](C)O)NC1=O (some centres undefined) [Pneumocandin analogue]
8,0.05 µM,CCC(C)CC(C)CCCCCCCCC(=O)N[C@@H]1C[C@@H](O)CNC(=O)[C@@H]2[C@@H](O)CCN2C(=O)[C@H]([C@@H](O)CC(N)=O)NC(=O)[C@H]([C@@H](O)Cc2ccc(O)c(N)c2)NC(=O)[C@@H]2C[C@@H](O)CN2C(=O)[C@H]([C@@H](C)O)NC1=O (some centres undefined) [Pneumocandin analogue]
9,4 µM,CCC(C)CC(C)CCCCCCCCC(=O)N[C@@H]1C[C@@H](O)CNC(=O)[C@@H]2[C@@H](O)CCN2C(=O)[C@H]([C@@H](O)CC(N)=O)NC(=O)[C@H]([C@@H](O)Cc2ccc(O)c([N+](=O)[O-])c2)NC(=O)[C@@H]2C[C@@H](O)CN2C(=O)[C@H]([C@@H](C)O)NC1=O (some centres undefined) [Pneumocandin analogue]
10,0.07 µM,CCC(C)CC(C)CCCCCCCCC(=O)N[C@@H]1C[C@@H](O)CNC(=O)[C@@H]2[C@@H](O)CCN2C(=O)[C@H]([C@@H](O)CC(N)=O)NC(=O)[C@H]([C@@H](O)Cc2ccc(O)cc2)NC(=O)[C@@H]2C[C@@H](O)CN2C(=O)[C@H]([C@@H](C)O)NC1=O (some centres undefined) [Pneumocandin analogue]
11,> 10 µM,CCC(C)CC(C)CCCCCCCCC(=O)N[C@@H]1C[C@@H](O)[C@@H](O)NC(=O)[C@@H]2[C@@H](O)CCN2C(=O)[C@H]([C@@H](O)CC(N)=O)NC(=O)[C@H]([C@@H](O)[C@H](O)c2cc(I)c(O)c(I)c2)NC(=O)[C@@H]2C[C@@H](O)CN2C(=O)[C@H]([C@@H](C)O)NC1=O (some centres undefined) [Pneumocandin analogue]
12,0.1 µM,CCC(C)CC(C)CCCCCCCCC(=O)N[C@@H]1C[C@@H](O)[C@@H](O)NC(=O)[C@@H]2[C@@H](O)CCN2C(=O)[C@H]([C@@H](O)CC(N)=O)NC(=O)[C@H]([C@@H](O)[C@H](O)c2ccc(O)c(I)c2)NC(=O)[C@@H]2C[C@@H](O)CN2C(=O)[C@H]([C@@H](C)O)NC1=O (some centres undefined) [Pneumocandin analogue]
13,0.04 µM,CCC(C)CC(C)CCCCCCCCC(=O)N[C@@H]1C[C@@H](O)[C@@H](O)NC(=O)[C@@H]2[C@@H](O)CCN2C(=O)[C@H]([C@@H](O)CC(N)=O)NC(=O)[C@H]([C@@H](O)[C@H](O)c2ccc(O)c(N)c2)NC(=O)[C@@H]2C[C@@H](O)CN2C(=O)[C@H]([C@@H](C)O)NC1=O (some centres undefined) [Pneumocandin analogue]
14,0.15 µM,CCC(C)CC(C)CCCCCCCCC(=O)N[C@@H]1C[C@@H](O)[C@@H](O)NC(=O)[C@@H]2[C@@H](O)CCN2C(=O)[C@H]([C@@H](O)CC(N)=O)NC(=O)[C@H]([C@@H](O)[C@H](O)c2ccc(O)c(NC(=O)CCC(=O)O)c2)NC(=O)[C@@H]2C[C@@H](O)CN2C(=O)[C@H]([C@@H](C)O)NC1=O (some centres undefined) [Pneumocandin analogue]
15,0.07 µM,CCC(C)CC(C)CCCCCCCCC(=O)N[C@@H]1C[C@@H](O)[C@@H](O)NC(=O)[C@@H]2[C@@H](O)CCN2C(=O)[C@H]([C@@H](O)CC(N)=O)NC(=O)[C@H]([C@@H](O)[C@H](O)c2ccc(O)c(NC(=O)CCN)c2)NC(=O)[C@@H]2C[C@@H](O)CN2C(=O)[C@H]([C@@H](C)O)NC1=O (some centres undefined) [Pneumocandin analogue]
16,0.035 µM,CCC(C)CC(C)CCCCCCCCC(=O)N[C@@H]1C[C@@H](O)[C@@H](O)NC(=O)[C@@H]2[C@@H](O)CCN2C(=O)[C@H]([C@@H](O)CC(N)=O)NC(=O)[C@H]([C@@H](O)[C@H](O)c2ccc(O)c(NC(=O)CN)c2)NC(=O)[C@@H]2C[C@@H](O)CN2C(=O)[C@H]([C@@H](C)O)NC1=O (some centres undefined) [Pneumocandin analogue]
17,2.9 µM,CCC(C)CC(C)CCCCCCCCC(=O)N[C@@H]1C[C@@H](O)[C@@H](O)NC(=O)[C@@H]2[C@@H](O)CCN2C(=O)[C@H]([C@@H](O)CC(N)=O)NC(=O)[C@H]([C@@H](O)[C@H](O)c2ccc(O)c([N+](=O)[O-])c2)NC(=O)[C@@H]2C[C@@H](O)CN2C(=O)[C@H]([C@@H](C)O)NC1=O (some centres undefined) [Pneumocandin analogue]
18,0.6 µM,CCCc1cc(C[C@H](O)[C@@H]2NC(=O)[C@@H]3C[C@@H](O)CN3C(=O)[C@H]([C@@H](C)O)NC(=O)[C@H](NC(=O)CCCCCCCCC(C)CC(C)CC)C[C@@H](O)CNC(=O)[C@@H]3[C@@H](O)CCN3C(=O)[C@H]([C@@H](O)CC(N)=O)NC2=O)ccc1O (some centres undefined) [Pneumocandin analogue]
19,0.26 µM,CCc1cc(C[C@H](O)[C@@H]2NC(=O)[C@@H]3C[C@@H](O)CN3C(=O)[C@H]([C@@H](C)O)NC(=O)[C@H](NC(=O)CCCCCCCCC(C)CC(C)CC)C[C@@H](O)CNC(=O)[C@@H]3[C@@H](O)CCN3C(=O)[C@H]([C@@H](O)CC(N)=O)NC2=O)ccc1O (some centres undefined) [Pneumocandin analogue]
